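Cells were grown in 96-well plates and exposed to each compound for 48 hours at five concentrations; endpoints were interpolated linearly between bracketing concentrations, or set to the highest concentration if not reached. GI50 = concentration required for 50% inhibition of growth.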 The source made the active and inactive calls. No stated cut-off is given here; in the data, active = GI50 up to about 1.1 µM and inactive = higher.
How the values were obtained:
Test in all cases: DTP human tumour cell line panel, 48 h
SK-OV-3 = test system: SK-OV-3
MCF7 = test system: MCF7
DU-145 = test system: DU-145
NCI-H460 = test system: NCI-H460
Hs-578T = test system: Hs-578T
OVCAR-8 = test system: OVCAR-8
OVCAR-4 = test system: OVCAR-4
BT-549 = test system: BT-549
KM12 = test system: KM12
OVCAR-5 = test system: OVCAR-5
SK-MEL-28 = test system: SK-MEL-28
LOX IMVI = test system: LOX IMVI
PC-3 = test system: PC-3
NCI-H23 = test system: NCI-H23
RXF 393 = test system: RXF 393
MOLT-4 = test system: MOLT-4
HL-60 = test system: HL-60
TK-10 = test system: TK-10
SN12C = test system: SN12C
HCT-15 = test system: HCT-15
EKVX = test system: EKVX
UO-31 = test system: UO-31
SK-MEL-5 = test system: SK-MEL-5
NCI/ADR-RES = test system: NCI/ADR-RES
NCI-H522 = test system: NCI-H522
SF-295 = test system: SF-295
UACC-62 = test system: UACC-62
K562 = test system: K562
HCT-116 = test system: HCT-116
ACHN = test system: ACHN
COLO 205 = test system: COLO 205
NCI-H226 = test system: NCI-H226
A549 = test system: A549
SR = test system: SR
786-0 = test system: 786-0
HOP-92 = test system: HOP-92
HCC 2998 = test system: HCC 2998
IGROV-1 = test system: IGROV-1
MDA-MB-435 = test system: MDA-MB-435
HT-29 = test system: HT-29
MDA-N = test system: MDA-N
SF-539 = test system: SF-539
M14 = test system: M14
SW-620 = test system: SW-620
MDA-MB-231 = test system: MDA-MB-231
RPMI-8226 = test system: RPMI-8226
CCRF-CEM = test system: CCRF-CEM
SNB-19 = test system: SNB-19
U-251 = test system: U-251
A498 = test system: A498
SF-268 = test system: SF-268
CAKI-1 = test system: CAKI-1
SK-MEL-2 = test system: SK-MEL-2
UACC-257 = test system: UACC-257
OVCAR-3 = test system: OVCAR-3
Malme-3M = test system: Malme-3M
HOP-62 = test system: HOP-62
SNB-75 = test system: SNB-75
T47D = test system: T47D

For `COc1ccc(C2c3cc4c(c(OC)c3CC3OCC(=O)C32)OCO4)cc1OC` (configuration not stated), the GI50 (SK-OV-3) was 0.0405 µM (active), the GI50 (MCF7) was 0.0575 µM (active) and the GI50 (DU-145) was 0.0218 µM (active). For the same compound, the GI50 (NCI-H460) was 0.0625 µM (active), the GI50 (Hs-578T) was < 0.01 µM (active) and the GI50 (OVCAR-8) was 0.0601 µM (active). The GI50 (OVCAR-4) was 0.0364 µM (active), the GI50 (BT-549) was 0.0914 µM (active) and the GI50 (KM12) was 0.0318 µM (active). For the same compound, the GI50 (OVCAR-5) was 0.153 µM (active), the GI50 (SK-MEL-28) was 31.9 µM (inactive) and the GI50 (LOX IMVI) was 0.0518 µM (active). The GI50 (PC-3) was 0.0619 µM (active), the GI50 (NCI-H23) was 0.0365 µM (active) and the GI50 (RXF 393) was 0.0212 µM (active). The GI50 (MOLT-4) was 0.13 µM (active), the GI50 (HL-60) was < 0.01 µM (active) and the GI50 (TK-10) was 60.7 µM (inactive). The GI50 (SN12C) was < 0.01 µM (active), the GI50 (HCT-15) was 0.0417 µM and the GI50 (EKVX) was 0.0605 µM (active). For the same compound, the GI50 (UO-31) was 0.074 µM (active), the GI50 (SK-MEL-5) was 0.037 µM (active) and the GI50 (NCI/ADR-RES) was 0.0377 µM (active). For the same compound, the GI50 (NCI-H522) was < 0.01 µM (active), the GI50 (SF-295) was 0.0307 µM (active) and the GI50 (UACC-62) was 0.0531 µM (active). For the same compound, the GI50 (K562) was 0.0504 µM (active), the GI50 (HCT-116) was 0.0516 µM (active) and the GI50 (ACHN) was < 0.01 µM (active). The GI50 (COLO 205) was 0.0267 µM (active), the GI50 (NCI-H226) was 0.0385 µM (active) and the GI50 (A549) was 0.0647 µM (active). The GI50 (SR) was < 0.01 µM (active), the GI50 (786-0) was 0.0348 µM (active) and the GI50 (HOP-92) was 25 µM (inactive). For the same compound, the GI50 (HCC 2998) was 0.129 µM (active), the GI50 (IGROV-1) was < 0.01 µM (active) and the GI50 (MDA-MB-435) was 0.0146 µM (active). The GI50 (HT-29) was < 0.01 µM (active), the GI50 (MDA-N) was < 0.01 µM (active) and the GI50 (SF-539) was 0.0246 µM (active). For the same compound, the GI50 (M14) was 0.0482 µM (active), the GI50 (SW-620) was 0.0366 µM (active) and the GI50 (MDA-MB-231) was 0.209 µM (active). The GI50 (RPMI-8226) was 0.0501 µM (active), the GI50 (CCRF-CEM) was 0.0371 µM (active) and the GI50 (SNB-19) was 0.0538 µM (active). The GI50 (U-251) was 0.0504 µM (active), the GI50 (A498) was 0.0783 µM (active) and the GI50 (SF-268) was 0.416 µM (active). For the same compound, the GI50 (CAKI-1) was 0.0405 µM (active) and the GI50 (SK-MEL-2) was 0.78 µM (active).

`COC(=O)c1c(O)ccc2c1c1c(n2CCc2ccccc2)C(=O)c2ccccc2C1` was tested, and the GI50 (SK-OV-3) was 22.5 µM (inactive), the GI50 (MCF7) was 14.2 µM (inactive) and the GI50 (DU-145) was 31.8 µM (inactive). For the same compound, the GI50 (UACC-257) was 18.5 µM (inactive), the GI50 (NCI-H460) was 16.7 µM (inactive) and the GI50 (Hs-578T) was 29.7 µM (inactive). For the same compound, the GI50 (OVCAR-8) was 36.3 µM (inactive), the GI50 (OVCAR-4) was 10.7 µM (inactive) and the GI50 (BT-549) was 24.4 µM (inactive). For the same compound, the GI50 (KM12) was 31.8 µM (inactive), the GI50 (SK-MEL-28) was 19.5 µM (inactive) and the GI50 (LOX IMVI) was 30.1 µM (inactive). For the same compound, the GI50 (OVCAR-3) was 16.1 µM (inactive), the GI50 (PC-3) was 16.8 µM (inactive) and the GI50 (NCI-H23) was 20.7 µM (inactive). For the same compound, the GI50 (RXF 393) was 13.3 µM (inactive), the GI50 (MOLT-4) was 38.3 µM (inactive) and the GI50 (HL-60) was 28.9 µM (inactive). The GI50 (TK-10) was 34.3 µM (inactive), the GI50 (SN12C) was 14.7 µM (inactive) and the GI50 (HCT-15) was 19.7 µM. The GI50 (UO-31) was 20.7 µM (inactive), the GI50 (SK-MEL-5) was 17.6 µM (inactive) and the GI50 (Malme-3M) was 32.3 µM (inactive). The GI50 (HOP-62) was 21.2 µM (inactive), the GI50 (NCI/ADR-RES) was 19.7 µM (inactive) and the GI50 (UACC-62) was 14.4 µM (inactive). The GI50 (K562) was 37.6 µM (inactive), the GI50 (HCT-116) was 15.3 µM (inactive) and the GI50 (COLO 205) was 14.6 µM (inactive). For the same compound, the GI50 (NCI-H226) was 16.3 µM (inactive), the GI50 (A549) was 23.5 µM (inactive) and the GI50 (SR) was 29.7 µM (inactive). The GI50 (786-0) was 17 µM (inactive), the GI50 (HOP-92) was 10.9 µM (inactive) and the GI50 (IGROV-1) was 19.6 µM (inactive). For the same compound, the GI50 (MDA-MB-435) was 18.2 µM (inactive), the GI50 (HT-29) was 24.4 µM (inactive) and the GI50 (MDA-N) was 24.4 µM (inactive). The GI50 (SF-539) was 24.8 µM (inactive), the GI50 (SNB-75) was 26.4 µM (inactive) and the GI50 (M14) was 22.3 µM (inactive). For the same compound, the GI50 (SW-620) was 30.1 µM (inactive), the GI50 (MDA-MB-231) was 19.5 µM (inactive) and the GI50 (RPMI-8226) was 11.7 µM (inactive). For the same compound, the GI50 (CCRF-CEM) was 21.4 µM (inactive), the GI50 (SNB-19) was 24.8 µM (inactive) and the GI50 (U-251) was 21.9 µM (inactive). For the same compound, the GI50 (A498) was 19.2 µM (inactive), the GI50 (SF-268) was 13.7 µM (inactive) and the GI50 (CAKI-1) was 17.2 µM (inactive). The GI50 (SK-MEL-2) was 15.8 µM (inactive).

In the case of `CN(C)CCNC(=O)Cn1ccc(=O)c2c([N+](=O)[O-])cccc21`, the GI50 (SK-OV-3) is reported as > 100 µM (inactive), the GI50 (MCF7) is reported as > 100 µM (inactive) and the GI50 (DU-145) is reported as > 100 µM (inactive). The GI50 (UACC-257) was > 100 µM (inactive), the GI50 (NCI-H460) was > 100 µM (inactive) and the GI50 (Hs-578T) was > 100 µM (inactive). The GI50 (OVCAR-8) was > 100 µM (inactive), the GI50 (OVCAR-4) was > 100 µM (inactive) and the GI50 (BT-549) was > 100 µM (inactive). For the same compound, the GI50 (KM12) was > 100 µM (inactive), the GI50 (OVCAR-5) was > 100 µM (inactive) and the GI50 (SK-MEL-28) was > 100 µM (inactive). For the same compound, the GI50 (LOX IMVI) was > 100 µM (inactive), the GI50 (OVCAR-3) was > 100 µM (inactive) and the GI50 (PC-3) was > 100 µM (inactive). The GI50 (T47D) was > 100 µM (inactive), the GI50 (NCI-H23) was > 100 µM (inactive) and the GI50 (RXF 393) was > 100 µM (inactive). The GI50 (MOLT-4) was > 100 µM (inactive), the GI50 (HL-60) was > 100 µM (inactive) and the GI50 (TK-10) was > 100 µM (inactive). For the same compound, the GI50 (SN12C) was > 100 µM (inactive), the GI50 (HCT-15) was greater than 100 µM and the GI50 (EKVX) was > 100 µM (inactive). For the same compound, the GI50 (UO-31) was > 100 µM (inactive), the GI50 (SK-MEL-5) was > 100 µM (inactive) and the GI50 (Malme-3M) was > 100 µM (inactive). The GI50 (HOP-62) was > 100 µM (inactive), the GI50 (NCI-H522) was > 100 µM (inactive) and the GI50 (SF-295) was > 100 µM (inactive). The GI50 (UACC-62) was > 100 µM (inactive), the GI50 (K562) was > 100 µM (inactive) and the GI50 (HCT-116) was > 100 µM (inactive). The GI50 (ACHN) was > 100 µM (inactive), the GI50 (COLO 205) was > 100 µM (inactive) and the GI50 (NCI-H226) was > 100 µM (inactive). The GI50 (A549) was > 100 µM (inactive), the GI50 (SR) was > 100 µM (inactive) and the GI50 (786-0) was > 100 µM (inactive). The GI50 (HCC 2998) was > 100 µM (inactive), the GI50 (IGROV-1) was > 100 µM (inactive) and the GI50 (MDA-MB-435) was > 100 µM (inactive). For the same compound, the GI50 (HT-29) was > 100 µM (inactive), the GI50 (MDA-N) was > 100 µM (inactive) and the GI50 (SF-539) was > 100 µM (inactive). For the same compound, the GI50 (SNB-75) was > 100 µM (inactive), the GI50 (M14) was > 100 µM (inactive) and the GI50 (SW-620) was > 100 µM (inactive). The GI50 (MDA-MB-231) was > 100 µM (inactive), the GI50 (RPMI-8226) was > 100 µM (inactive) and the GI50 (CCRF-CEM) was > 100 µM (inactive). For the same compound, the GI50 (SNB-19) was > 100 µM (inactive), the GI50 (U-251) was > 100 µM (inactive) and the GI50 (A498) was > 100 µM (inactive). The GI50 (SF-268) was > 100 µM (inactive), the GI50 (CAKI-1) was > 100 µM (inactive) and the GI50 (SK-MEL-2) was > 100 µM (inactive).

Source: ChEMBL document CHEMBL1201862, “PubChem BioAssay data set” (2004)
